BindingDB's records for doi:10.1016/j.bmcl.2011.10.035 (Sepuluh Nopember Institute of Technology, 2011)

Target: Aldo-keto reductase family 1 member B1 (Homo sapiens, UniProt P15121)
Test: Inhibition of recombinant human aldose reductase using dl-glyceraldehyde as substrate after 10 mins by spectrophotometry

CC(CC(=O)C[C@@H](C)[C@H]1CC(=O)[C@@]2(C)C3C(=O)C[C@H]4C(C)(C)[C@@H](O)CC[C@]4(C)C3C(=O)C(=O)[C@]12C)C(=O)O (stereo partly drawn)
IC50: > 193 µM

CC(CC(=O)C[C@@H](C)[C@H]1CC(=O)[C@@]2(C)C3C(C(=O)C(=O)[C@]12C)[C@@]1(C)CC[C@H](O)C(C)(C)[C@@H]1C[C@@H]3O)C(=O)O (stereo partly drawn)
IC50: > 188 µM

CC(=CC(=O)CC(C)C(=O)O)[C@H]1CC(=O)[C@@]2(C)C3=C(C(=O)C[C@]12C)[C@@]1(C)CCC(=O)C(C)(C)[C@@H]1C[C@@H]3O (stereo partly drawn)
IC50: > 195 µM
